Test results as given in paper PMC5045412, “Inhibition of pro-HGF activation by SRI31215, a novel approach to block oncogenic HGF/MET signaling” (Oncotarget, 2016).

Assays:
Assay type in all cases: cell-based
DiFi cells [1] = experiment: Viability of DiFi cells with EGFR inhibitors and fibroblast conditioned medium; conditions: gefitinib 0.5 μM or cetuximab 0.5 μg/ml, 72 hours
Procedure: (§1) Figure 6 Fibroblasts inhibit the proapoptotic activity of EGFRi in an HGF-dependent manner A. and B. DiFi cells were treated with gefitinib (0.5 μM) or cetuximab (0.5 μg/ml) in the absence or the presence of conditioned medium from fibroblasts and SRI 31215 and JNJ 38877605 as indicated. The viability was determined after 72 hours. In B, fibroblast conditioned medium was incubated with anti HGF or anti-IL1β antibodies. C. and D. DiFi cells were treated with gefitinib (C) or cetuximab (D) in the presence of conditioned medium from fibroblasts and inhibitors of HGF/MET signaling as indicated for 18h. Caspase activity was assessed by the Caspase-Glo 3/7 Assay from Promega.
(§2) Cell titer-glo luminescent cell viability assay kit was purchased from Promega. […] For clonogenic assay, cells were seeded in 6-well plates at a density of 400 cells per well, serum starved overnight, and treated as indicated. After colony formation (8-12 days), cells were stained with crystal violet and the number of colonies was determined using ImageQuantTL (GE Health Care Life Sciences).

DiFi cells [2] = experiment: Caspase-Glo 3/7 Assay; conditions: fibroblast conditioned medium, 18h
Procedure: as §1
DiFi cells were seeded at a density of 20,000 cells/well in a 96 well plate and were treated with EGFRi in the absence or the presence of SRI 31215 or JNJ 38877605 for 18h. Caspase activity was assessed by the Caspase-Glo 3/7 Assay from Promega following the manufacturer's instructions.

DiFi cells [3] = experiment: DiFi cells co-cultured with WI38 fibroblasts, immunoblotting; conditions: gefitinib 0.5 μM, WI38 co-culture, SRI 31215 10 μM, JNJ38877605 1 μM
Procedure: Figure 7 Fibroblasts protect DiFi cells from EGFRi in an HGF-dependent manner DiFi cells were treated with gefitinib (0.5 μM) alone or were co-cultured with WI38 fibroblasts (FIB) in the absence or the presence of SRI 31215 (10 μM) or JNJ38877605 (1 μM). The DiFi cell lysates were isolated after 4 or 24 hours as indicated and examined for the expression of pERK and total ERK, pEGFR and total EGFR, cleaved PARP, β-catenin gelsolin and β-actin by immunoblotting.
Immunoblotting was performed using standard procedures. Membranes were blocked with 5% non-fat milk for 1 hour at RT, and incubated with primary antibodies overnight at 4°C. Primary antibodies used were anti-HGF (R&D Systems), anti-MET, anti-p-MET, anti-p-GAB1, anti-p-AKT, anti-p-ERK1/2, anti-vimentin (Cell Signaling Technology), anti-p-STAT3 (Upstate Cell Signaling Solutions), anti-E-cadherin (BD Transduction Laboratories), anti-β-actin (Sigma). Following washing with TBS-T buffer, membranes were incubated with horseradish peroxidase-conjugated secondary antibodies for 1 hour and then washed with TBS-T. Immunoblots were developed using the chemiluminescent detection system with ECL (Amersham). Protein loading was normalized by probing blots for the expression of β-actin.

DU145 cells [4] = experiment: Cell scattering assay; conditions: 24 hours, SRI 31215 10 μM; for fibroblast-induced cell scattering: 18Co conditioned media, JNJ 38877605 1 μM
Procedure: DU145 cells were cultured in 6-well tissue culture plates at a density of 1×10^3 cells per well. After colonies formed (6-8 days), cells were serum-starved overnight and were then treated with recombinant HGF (10 ng/ml) or with conditioned media from 18Co fibroblasts in the presence or absence of SRI 31215 (10 μM) or the MET kinase inhibitor JNJ 38877605 (1 μM) for 24 hours. Cells were washed with PBS and colonies were fixed and stained with 0.5% crystal violet solution in 6% glutaraldehyde.

DU145 cells [5] = experiment: Scratch assay and transwell migration assay; conditions: SRI 31215 10 μM, JNJ 38877605 1 μM; for fibroblast-induced migration: 18Co or WI38 conditioned media
Procedure: (§3) Cancer cells were seeded in 12-well plates and allowed to reach confluence. Following overnight serum-starvation, a scratch/wound was introduced into the cell monolayer with a sterile tip. Cells were cultured in serum-free media or were treated with recombinant HGF (10 ng/ml) or serum-free conditioned media from fibroblasts (50%) in the presence or absence of SRI 31215 or JNJ 38877605. Images of migrating cells were captured at 0, 12 and 24 hours after the treatment.
Cytoselect cell migration assay kit was purchased from Cell Biolabs, Inc and the assay was performed according to the manufacturer's instructions. Briefly, DU145 cells (75×10^3) were seeded in transwells ([…] inserts) in serum-free media and were stimulated with recombinant HGF or with conditioned media from 18Co or WI38 fibroblasts (in the absence or the presence of SRI 31215 or JNJ 38877605). Cells were incubated for 12 hours and non-migratory cells were gently removed from inside of the inserts. Inserts were stained for 10 minutes at room temperature, transferred to wells containing 200 μl of extraction buffer and incubated for 10 minutes on a shaker. The optical density (OD) was measured at 560 nm.

RKO cells [6] = experiment: Basal, constitutive migration of RKO cells; conditions: data not shown
Procedure: as §3

RKO cells [7] = experiment: Clonogenic growth and viability of HGF-producing RKO cells with EGFR inhibitors; conditions: SRI 31215 10 μM, JNJ 38877605 1 μM; for sensitization to gefitinib: HGF-producing RKO cells; for clonogenic growth, agent alone / clonogenic growth, combination with cetuximab: RKO cells, HAI-1 20 nM; for clonogenic growth, combination with cetuximab: cetuximab 50 μg/ml
Procedure: (§4) Figure 5 Inhibitors of HGF/MET signaling prevent the innate and acquired resistance to cetuximab A. and B. RKO cells were treated with cetuximab (50 μg/ml) (A) of gefitinib (B) alone, or in combination with SRI 31215 (10 μM), JNJ 38877605 (1 μM) or recombinant HAI-1 (20 nM) as indicated and clonogenic growth was monitored as described in Materials and Methods. C. and D. Caco2 cells were treated with cetuximab or gefitinib alone or in the presence of CM from fibroblasts and SRI 31215 (10 μM) or JNJ 38877605 (1 μM) as indicated. #: p<0.05, compared to control (CTRL); NS: not significant.
as §2
Supplementary Figure S3: Inhibition of HGF/MET signaling sensitizes HGF-producing RKO colon cancer cells to gefitinib. A. RKO cells (HGF+) and B. HT29 (HGF-) cells were treated with gefitinib (5 μM) in the absence or the presence of SRI 31215 (10 μM) or JNJ 38877605 (1 μM) as indicated and viability was determined 24 and 72 hours after treatment. # indicates statistical significance compared to samples treated with gefitinib alone as determined by Students’ t-test (p<0.05).
(also on this page, place not known: www.impactjournals.com/oncotarget/ Oncotarget, Materials 2016 Supplementary (HGF +) (HGF -)) […]

Caco2 cells = experiment: Response of Caco2 cells to EGFR inhibitors with fibroblast conditioned medium; conditions: SRI 31215 10 μM, JNJ 38877605 1 μM; for response to cetuximab in the presence of fibroblast-derived CM: 18Co CM; for fibroblast-mediated resistance to gefitinib: 18Co conditioned medium
Procedure: as §4, §2

Compound: Cn1cc(-c2ccc3nnc(C(F)(F)c4ccc5ncccc5c4)n3n2)cn1 [JNJ 38877605, reference compound]
- fibroblast-mediated resistance to gefitinib and cetuximab (viability) (DiFi cells [1]): prevent
- gefitinib-induced activation of caspase 3 and caspase 7 in the presence of fibroblasts (DiFi cells [2]): restored
- gefitinib-induced cleavage of PARP in the presence of fibroblasts (DiFi cells [3]): restored
- prosurvival activity of fibroblasts (EGFR and ERK phosphorylation under gefitinib) (DiFi cells [3]): blocked
- fibroblast-induced cell scattering (DU145 cells [4]): prevented
- fibroblast-induced migration (DU145 cells [5]): completely prevented
- HGF-induced migration (DU145 cells [5]): completely prevented
- basal, constitutive migration (RKO cells [6]): inhibit
- sensitization to gefitinib (RKO cells [7]): sensitized
- clonogenic growth, agent alone (RKO cells [7]): did not impact
- clonogenic growth, combination with cetuximab (RKO cells [7]): significant decrease
- response to cetuximab in the presence of fibroblast-derived CM (Caco2 cells): restored the response
- fibroblast-mediated resistance to gefitinib (Caco2 cells): overcame

Compound: CC1CN(CC2CCN(Cc3ccccc3)CC2)C(=O)N(c2cccc(C(=N)N)c2)C1 (stereo not drawn) [SRI 31215, 3-(3-((1-benzylpiperidin-4-yl)methyl)-5-methyl-2-oxotetrahydropyrimidin-1(2H)-yl)benzimidamide]
- fibroblast-mediated resistance to gefitinib and cetuximab (viability) (DiFi cells [1]): prevent
- gefitinib-induced activation of caspase 3 and caspase 7 in the presence of fibroblasts (DiFi cells [2]): restored
- gefitinib-induced cleavage of PARP in the presence of fibroblasts (DiFi cells [3]): restored
- prosurvival activity of fibroblasts (EGFR and ERK phosphorylation under gefitinib) (DiFi cells [3]): blocked
- fibroblast-induced cell scattering (DU145 cells [4]): prevented
- scattering induced by active HGF (DU145 cells [4]): did not interfere
- fibroblast-induced migration (DU145 cells [5]): inhibited
- HGF-induced migration (DU145 cells [5]): did not interfere
- basal, constitutive migration (RKO cells [6]): inhibit
- sensitization to gefitinib (RKO cells [7]): sensitized
- clonogenic growth, agent alone (RKO cells [7]): did not impact
- clonogenic growth, combination with cetuximab (RKO cells [7]): significant decrease
- response to cetuximab in the presence of fibroblast-derived CM (Caco2 cells): restored the response
- fibroblast-mediated resistance to gefitinib (Caco2 cells): overcame
